Test results taken from patent publication US20020197700A1, “Receptor of the EDb-fibronectin domains” (Schering AG, priority 2000, published 2002).
Entries after “also recorded” stand apart in the source; their conditions may differ. Values belong to the substance of their own block, whether it stands above or below them.

Legend:
[1] = system: HUVEC (Human Umbilical Vein Endothelial Cells)-spheroids; assay: splintering test (tube formation test) of endothelial cell spheroids in collagen; format: cell-based; details: for induction of capillary-like structures (tube formation); penetration of endothelial cells in collagen gels: over basal bFGF-induced penetration
Description: For the splintering test (tube formation test), the following experimental method was used:
Medium: MCDB 131, glutamine, Pen/Strep, amphotericin (0.25 μg/ml), heparin (20 μg/ml), heat-inactivated FCS (10%)
Growth medium: Medium with 2 ng/ml of bFGF and 10 ng/ml of VEGF
Endothelial cells are dissolved with trypsin/EDTA and diluted with 5000 cells/ml in medium with 0.24% methyl cellulose. 200 μl (1000 cells) each are added to bowls of a Greiner plate and incubated overnight. Round cell clusters (spheroids) are harvested with a 1 ml pipette with beveled tips and centrifuged off. Spheroids are resuspended in 1.2% methyl cellulose/FCS and mixed with neutralized collagen gel. EDb and bFGF were co-polymerized.
This peptide thus has a stimulating effect on the penetration of endothelial cells in collagen gels. This peptide therefore corresponds to the binding region of EDb and stimulates, analogously to EDb itself, the penetration of endothelial cells in the collagen.
The method described for FIG. 3 was followed.

endothelial cells [2] = assay: adhesion test to ED-B-coated plates after pre-incubation of the cells with synthetic ED-B peptides; format: cell-based; details: cells pre-incubated with 250 μM peptide; A595
Description: Bowls of a 96-bowl plate (Nunc) are covered with protein for one hour at 37° C. With small proteins (<20 kDa) or peptides, it is recommended to allow the latter to dry on the plate (overnight without a cover under the sterile bank). The bowls are then saturated with 1% BSA for 1 hour at 37° C. Cells are dissolved in 1×trypsin, washed with 2% serum to inactivate the trypsin, and resuspended in medium. If antibodies or peptides are to be tested, the cells are pre-incubated in suspension with the latter for 30 minutes at 37° C. 10^4 cells per bowl (96-bowl plate) are incubated in a volume of 50-100 μl for 1 hour at 37° C. The supernatant is carefully poured off, the plate can be left inverted to drain on a paper towel for one minute and attached cells are stained with crystal violet/glutaric aldehyde for 15 minutes and attached. The bowls are washed three times with PBS, and the cells are then lysed by adding 2% SDS (15 minutes in the shaker). The absorption at 595 nm is measured. After washing three times with water, the cells, if desired, can be stained again.
The adherence was determined by the determination of the extinction at 595 nm (A595). The peptide designations that are applied in the figure are explained in FIG. 6. In this case, peptide sequence No. 043 corresponds to the sequence that is represented in SEQ ID NO: 1, peptide sequence No. 553 corresponds to SEQ ID NO: 2, peptide sequence No. 038 corresponds to SEQ ID NO: 3. A higher A595 value corresponds to a non-inhibited adherence, while a lower A595 value corresponds to an inhibition of the adherence by the corresponding peptide.
The method described for FIG. 4 was followed.

[3] = molecular target: T1, biontinylated protein with an apparent molecular weight of 120-130 kDa (receptor of the EDb-fibronectin domains) (Homo sapiens, UniProt P05556); assay: affinity chromatography of cell lysate from surface-labeled human skin endothelial cells; format: binding; details: proliferating endothelial cells; EDTA elution; SDS-PAGE, Western Blot
T1 construct: proliferating endothelial cells that are biotinylated on the cell surface were lysed with a detergent; endogenous in cells; host or cells: proliferating human skin endothelial cells, surface-biotinylated, lysed in CHAPS
Description: In this respect, proliferating endothelial cells that are biotinylated on the cell surface were lysed with a detergent and subjected to an affinity chromatography, in which short fragments of fibronectin were coupled to sepharose with or without the inserted EDb-fibronectin domains (with the EDb-fibronectin domains=Fn-7-B-8-9, without the EDb-fibronectin domains=Fn-7-8-9). […] The elution is carried out by means of EDTA. Several fractions, described below, were collected. The fractions were then subjected to SDS-PAGE and studied with Western Blot with streptavidin-peroxidase and chemiluminescence (ECL). Traces 1 and 5 show pre-elution fractions, while traces 2, 3, 4 or 6, 7, 8 show the eluted fractions 1, 2 and 3. Traces 1-4 show the chromatography with Fn-7-8-9, while traces 5-8 show the chromatography with Fn-7-B-8-9.
Method: The cell culture bottles are washed respectively 3 times with PBS w/Ca+Mg before and after the biotinylation. Before the last washing process, the biotin buffer (1 mg/15 ml of PBS) is prepared. Into each of the bottles, 5 ml of the buffer (for 225 cm^2) or 12.5 ml (500 cm^2 plates) is pipetted into the center of the bottom, so that the volume can disperse over the entire bottom of the bottle while swinging around. The first culture bottle is then treated with half of the lysis buffer volume. […]

[4] = system: band with an apparent molecular weight of 120-130 kDa (receptor of the EDb-fibronectin domains); assay: affinity chromatography of cell lysate from surface-labeled human skin stromal cells; format: binding; details: Western Blot
Description: Method: The lysate is first put on the column three times.
EDTA-Elution: EDTA complexes the Ca and Mg ions. As a result, the endothelial-cell proteins are eluted, which require Ca and Mg for binding. 2×4 ml of EDTA-buffer is put on the column (or on both columns) and collected in two fractions (E1 and E2/BE1 and BE2) in Falcon tubes. Then, the tube contents are mixed, and […] is pipetted off into one (or two) Eppendorf vessel(s).
The fractions or pre-elution fractions that are thus obtained were separated with SDS-PAGE and subjected to a Western Blot under reducing conditions.
In the Western Blot shown in FIG. 11, traces 1-3 show the elution of an affinity column with Fn-7-8-9, while traces 4-6 show the elution of an affinity column of Fn-7-B-8-9. Traces 1 and 4 are pre-elution factors, while traces 2, 3 or 5, 6 show fractions 1 and 2 of the respective elution run.

endothelial cells (EC) = assay: proliferation assay (MTS) of endothelial cells; format: cell-based; details: soluble ED-B 10 μg/l, 3 days; for action on human endothelial cell proliferation: bFGF-induced
Description: (§1) 1000 cells per bowl were incubated in 96-bowl plates. Soluble ED-B (10 μg/l) was added to the medium during the proliferation assay. After three days, the cell count was determined with the MTS assay. The proliferation of cells was induced by a basic […] growth factor (bFGF). […] In the case of human stromal cells on gelatin (SC/gelatin), even in the absence of bFGF proliferation occurred that considerably exceeded that of human endothelial cells.
(§2) For the proliferation assay, the following experimental method was followed:
(§3) Material: 96-bowl plate (flat-bottomed), Nunc
(§4) Medium: MCDB 131, Pen/Strep, amphotericin (0.25 μg/ml), heparin (20 μg/ml), heat-inactivated FCS (5%)
(§5) Cells, 500-1000 per bowl (96-bowl plate) in 100 μl, are cultivated for 3 days in a medium with bFGF (1-3 ng/ml) or VEGF (30-50 ng/ml). The exact amount should be determined for each batch by titration: the minimum concentration that reaches the maximum proliferation stimulation is optimal. A synchronization of the cells before the experiment is not necessary, but can be done. After 3 days, the cell count is determined with the MTS kit (Promega) according to manufacturer's information. It is recommended to measure the absorption at several points to obtain a maximum absorption in the linear range (0.5; 1; 2; 4 hours).
Negative control, no mitogen (no proliferation) (−bFGF/VEGF) Positive control, with mitogen (maximum stimulation) (+bFGF/VEGF)

stromal cells (SC) = assay: proliferation assay (MTS) of stromal cells; format: cell-based, human; details: SC/gelatin; bFGF+ED-B; 3 days
Description: as §1, §2, §3, §4
as §5, with “hours). […]” for “hours).”

endothelial cells [5] = assay: adhesion test of endothelial cells to coated microtiter-bowl plates; format: cell-based; details: plates coated with 0-40 μg/ml ED-B; 1 hour; crystal violet, A595
Description: As a negative control, bowls were used that were coated with 1 mg/ml of BSA (bovine serum albumin); the adhesion to BSA (<10%) was subtracted.
The adherence was quantified by staining with crystal violet, followed by a lysis with SDS. The quantification was carried out by measuring the extinction at 595 nm. A line drawn horizontally in the figure at A595 nm≈1.06 indicates the 100% adhesion to plasma-fibronectin.
For the adherence/adhesion test, the following experimental method was used:
Medium: MCDB 131, Pen/Strep, amphotericin (0.25 μg/ml), heparin (20 μg/ml), 0.1% BSA (Sigma, ethanol-precipitated)
0.1% crystal violet, 2% glutaric aldehyde in PBS, sterilized by filtration 2% SDS
Bowls of a 96-bowl plate (Nunc) are covered with protein for one hour at 37° C. With small proteins (<20 kDa) or peptides, it is recommended to allow the latter to dry on the plate (overnight without a cover under the sterile bank). The bowls are then saturated with 1% BSA for 1 hour at 37° C. Cells are dissolved in 1×trypsin, washed with 2% serum to inactivate the trypsin, and resuspended in medium. If antibodies or peptides are to be tested, the cells are pre-incubated in suspension with the latter for 30 minutes at 37° C. 10^4 cells per bowl (96-bowl plate) are incubated in a volume of 50-100 μl for 1 hour at 37° C. […] The absorption at 595 nm is measured. […]

T1 sequence (P05556 21-798): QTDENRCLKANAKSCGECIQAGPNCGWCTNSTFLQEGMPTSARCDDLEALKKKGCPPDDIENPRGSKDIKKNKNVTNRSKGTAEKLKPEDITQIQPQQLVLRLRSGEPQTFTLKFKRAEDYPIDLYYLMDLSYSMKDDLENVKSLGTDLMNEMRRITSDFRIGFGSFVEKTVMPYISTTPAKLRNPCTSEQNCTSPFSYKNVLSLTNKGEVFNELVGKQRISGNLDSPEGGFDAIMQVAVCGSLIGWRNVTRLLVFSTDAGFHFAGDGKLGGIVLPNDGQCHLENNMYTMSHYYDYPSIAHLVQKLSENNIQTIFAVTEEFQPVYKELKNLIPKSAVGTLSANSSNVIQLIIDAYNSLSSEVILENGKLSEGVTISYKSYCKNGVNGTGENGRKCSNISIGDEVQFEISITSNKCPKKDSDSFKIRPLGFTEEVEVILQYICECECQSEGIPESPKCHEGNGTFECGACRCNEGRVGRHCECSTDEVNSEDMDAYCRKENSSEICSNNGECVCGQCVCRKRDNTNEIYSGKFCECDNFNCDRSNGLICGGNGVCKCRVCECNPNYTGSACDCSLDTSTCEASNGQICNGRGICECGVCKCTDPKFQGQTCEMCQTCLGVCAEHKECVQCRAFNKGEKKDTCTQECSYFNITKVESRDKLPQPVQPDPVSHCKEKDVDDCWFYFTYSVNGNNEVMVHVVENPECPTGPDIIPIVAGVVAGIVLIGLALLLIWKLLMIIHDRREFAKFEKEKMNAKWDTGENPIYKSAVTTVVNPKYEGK
T1 sequence (P17301 30-1181 partner): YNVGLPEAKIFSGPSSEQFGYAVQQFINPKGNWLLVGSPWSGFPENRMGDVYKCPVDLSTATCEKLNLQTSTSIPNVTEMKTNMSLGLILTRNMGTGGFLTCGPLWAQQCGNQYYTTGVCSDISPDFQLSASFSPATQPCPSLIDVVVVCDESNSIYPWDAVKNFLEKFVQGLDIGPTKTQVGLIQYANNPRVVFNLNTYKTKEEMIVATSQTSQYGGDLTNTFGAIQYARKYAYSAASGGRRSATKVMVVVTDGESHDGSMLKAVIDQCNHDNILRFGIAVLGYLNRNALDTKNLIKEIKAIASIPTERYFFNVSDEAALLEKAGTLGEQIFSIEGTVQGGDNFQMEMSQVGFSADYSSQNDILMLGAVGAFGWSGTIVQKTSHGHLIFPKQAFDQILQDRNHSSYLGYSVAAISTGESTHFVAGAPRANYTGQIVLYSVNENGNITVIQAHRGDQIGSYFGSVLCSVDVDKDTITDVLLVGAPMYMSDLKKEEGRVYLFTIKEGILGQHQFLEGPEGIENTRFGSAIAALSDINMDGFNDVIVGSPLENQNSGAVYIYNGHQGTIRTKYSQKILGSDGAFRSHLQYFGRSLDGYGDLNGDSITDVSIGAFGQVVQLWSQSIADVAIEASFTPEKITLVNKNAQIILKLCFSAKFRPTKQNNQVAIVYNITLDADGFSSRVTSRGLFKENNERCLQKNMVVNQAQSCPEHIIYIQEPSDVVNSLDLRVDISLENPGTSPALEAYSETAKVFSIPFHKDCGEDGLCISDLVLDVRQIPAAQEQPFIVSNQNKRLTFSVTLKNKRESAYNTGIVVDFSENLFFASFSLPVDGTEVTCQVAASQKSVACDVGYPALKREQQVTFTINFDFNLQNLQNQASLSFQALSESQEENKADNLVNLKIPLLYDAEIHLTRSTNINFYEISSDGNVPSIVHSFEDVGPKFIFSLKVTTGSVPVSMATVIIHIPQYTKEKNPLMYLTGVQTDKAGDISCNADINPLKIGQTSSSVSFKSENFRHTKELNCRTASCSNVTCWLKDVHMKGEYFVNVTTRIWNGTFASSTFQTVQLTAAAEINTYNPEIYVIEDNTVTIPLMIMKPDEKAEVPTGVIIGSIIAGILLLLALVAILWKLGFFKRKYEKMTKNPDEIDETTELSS

Substance: peptide No. 2: synthetic peptide derived from loop 5 of ED-B, SEQ ID NO: 2 (GYYTVTGLEPGIDYD)
induction of capillary-like structures (tube formation); penetration of endothelial cells in collagen gels [1]: maximum effect
inhibition of adherence of endothelial cells to ED-B-coated plates (endothelial cells [2]): inhibitory

Substance: 3: synthetic peptide, partial sequence of the EDb-fibronectin domains, SEQ ID NO: 3 (TGLEPGIDYDISVIT) [compound 3]
inhibition of adherence of endothelial cells to ED-B-coated plates (endothelial cells [2]): inhibitory

binding of 120-130 kDa surface protein to sepharose-coupled fragment [3]: binds specifically
Substance: Fn-7-B-8-9: recombinant fibronectin fragment with domains 7, EDb, 8 and 9
prominent 120-130 kDa band in eluate of affinity column [4]: cannot be determined

Substance: 1: synthetic peptide, partial sequence of the EDb-fibronectin domains, SEQ ID NO: 1 (VDITDSSIGLRWTPL) [compound 1]
inhibition of adherence of endothelial cells to ED-B-coated plates (endothelial cells [2]): inhibitory

Substance: ED-B: recombinant His-tagged EDb-fibronectin domain (type III repeat), expressed in E. coli
action on human endothelial cell proliferation (endothelial cells (EC); EC/collagen): not as significant as in the flattening-out on gelatin
action on human endothelial cell proliferation (endothelial cells (EC); EC/gelatin): action of ED-B on human endothelial cell proliferation could be determined
action on proliferation of cells (extinction at 490 nm) (endothelial cells (EC); absence of bFGF, MTS assay): no action
proliferation of human stromal cells (stromal cells (SC)): could not be increased
splintering of endothelial cells from spheroids ([1]; embedded in collagen, 10 μg/ml bFGF, 6 μg/ml ED-B): further stimulated; also recorded: significant increase in splintering
induction of capillary-like structures (tube formation); penetration of endothelial cells in collagen gels [1]: stimulates
adhesion of endothelial cells to coated surfaces (endothelial cells [5]): cells adhere
